Source: patent publication US20250228239A1, “MOLECULES HAVING PESTICIDAL UTILITY, AND INTERMEDIATES, COMPOSITIONS, AND PROCESSES, RELATED THERETO” (priority 2024, published 2025)

Experiments:
[1] = system: Beet Armyworm (Spodoptera exigua, LAPHEG); experiment: Bioassays on Beet Armyworm (BAW), 128-well diet tray assay; type: in vivo; settings: Spodoptera exigua; Table ABC: Biological Results; species BAW; read-out: BAW
In short: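 Percent larval mortality, averaged across eight wells, scored after five to seven days at 25° C. under 14:10 light-dark. Each well held one to five second instars feeding on diet dosed at 50 μg/cm^2 with compound from 90:10 acetone-water, solvent dried off.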

[2] = system: Cabbage Looper (Trichoplusia ni, TRIPNI); experiment: Bioassays on Cabbage Looper (CL), 128-well diet tray assay; type: in vivo; settings: Trichoplusia ni; Table ABC: Biological Results; species CL; read-out: CL
In short: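 Each of eight wells receives artificial diet treated at 50 μg/cm^2 with the test molecule, then one to five second-instar larvae. Incubation runs five to seven days at 25° C with a 14:10 light-dark cycle under vented covers. Mortality is scored per well as a percentage and averaged.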

SMILES	pest or weed control at 50 µg/cm2 [1]	pest or weed control at 50 µg/cm2 [2]
Nc1cc(F)c(NC(=O)c2cc(NC(=O)[C@H]3[C@H](c4cc(Cl)cc(Cl)c4)C3(Cl)Cl)ccc2Cl)c(F)c1 [F1027, N-(4-Amino-2,6-difluorophenyl)-2-chloro-5-((1R,3R)-2,2-dichloro-3-(3,5-dichlorophenyl)cyclopropane-1-carboxamido)benzamide]	50 to 100%	50 to 100%
Nc1cc(F)c(NC(=O)c2cc(NC(=O)[C@H]3[C@H](c4ccc(Cl)c(Cl)c4)C3(Cl)Cl)ccc2Cl)c(F)c1 [F1028, N-(4-Amino-2,6-difluorophenyl)-2-chloro-5-((1R,3R)-2,2-dichloro-3-(3,4-dichlorophenyl)cyclopropane-1-carboxamido)benzamide]	50 to 100%	50 to 100%
Nc1cc(F)c(NC(=O)c2cc(NC(=O)[C@H]3[C@H](c4cc(Cl)c(Cl)c(Cl)c4)C3(Cl)Cl)ccc2Cl)c(F)c1 [F1029, N-(4-Amino-2,6-difluorophenyl)-2-chloro-5-((1R,3R)-2,2-dichloro-3-(3,4,5-trichlorophenyl)cyclopropane-1-carboxamido)benzamide]	50 to 100%	50 to 100%
Nc1cc(F)c(NC(=O)c2cc(NC(=O)[C@H]3[C@H](c4ccc(F)c(Cl)c4)C3(Cl)Cl)ccc2Cl)c(F)c1 [F1030, N-(4-Amino-2,6-difluorophenyl)-2-chloro-5-((1R,3R)-2,2-dichloro-3-(3-chloro-4-fluorophenyl)cyclopropane-1-carboxamido)benzamide]	50 to 100%	50 to 100%
CN(C(=O)c1cc(NC(=O)[C@H]2[C@H](c3ccc(Cl)c(Cl)c3)C2(Cl)Cl)ccc1Cl)c1ccc(F)c(N)c1F [F1056, N-(3-Amino-2,4-difluorophenyl)-2-chloro-5-((1R,3R)-2,2-dichloro-3-(3,4-dichlorophenyl)cyclopropane-1-carboxamido)-N-methylbenzamide]	50 to 100%	50 to 100%
O=C(Nc1ccc(F)c(NC(=O)C(Cl)(Cl)Cl)c1F)c1cc(NC(=O)[C@H]2[C@H](c3ccc(Cl)c(Cl)c3)C2(Cl)Cl)ccc1Cl [F1063, 2-Chloro-5-((1R,3R)-2,2-dichloro-3-(3,4-dichlorophenyl)cyclopropane-1-carboxamido)-N-(2,4-difluoro-3-(2,2,2-trichloroacetamido)phenyl)benzamide]	50 to 100%	50 to 100%
Cc1cc(C2C(C(=O)Nc3ccc(Cl)c(C(=O)Nc4ccc(F)c(N)c4F)c3)C2(Cl)Cl)cc(C(F)(F)F)c1F (stereo not drawn) [F1069, cis-N-(3-Amino-2,4-difluorophenyl)-2-chloro-5-((cis)-2,2-dichloro-3-(4-fluoro-3-methyl-5-(trifluoromethyl)phenyl)cyclopropane-1-carboxamido)benzamide]	50 to 100%	50 to 100%
O=C(Nc1cccc(F)c1[N+](=O)[O-])c1cc(NC(=O)[C@H]2[C@H](c3ccc(F)c(Cl)c3)C2(Cl)Cl)ccc1Cl [F1081, 2-Chloro-5-((1R,3R)-2,2-dichloro-3-(3-chloro-4-fluorophenyl)cyclopropane-1-carboxamido)-N-(3-fluoro-2-nitrophenyl)benzamide]	50 to 100%	50 to 100%
Cc1cc(F)c(NC(=O)c2cc(NC(=O)[C@H]3[C@H](c4ccc(F)c(Cl)c4)C3(Cl)Cl)ccc2Cl)cc1[N+](=O)[O-] [F1082, 2-Chloro-5-((1R,3R)-2,2-dichloro-3-(3-chloro-4-fluorophenyl)cyclopropane-1-carboxamido)-N-(2-fluoro-4-methyl-5-nitrophenyl)benzamide]	50 to 100%	50 to 100%
CC(=O)Nc1c(F)ccc(NC(=O)c2cc(NC(=O)[C@H]3[C@H](c4ccc(Cl)c(Cl)c4)C3(Cl)Cl)ccc2Cl)c1F [F1083, N-(3-acetamido-2,4-difluorophenyl)-2-chloro-5-((1R,3R)-2,2-dichloro-3-(3,4-dichlorophenyl)cyclopropane-1-carboxamido)benzamide]	50 to 100%	50 to 100%
Nc1c(F)ccc(NC(=O)c2cc(NC(=O)C3C(c4cc(F)cc(Br)c4F)C3(Cl)Cl)ccc2Cl)c1F (stereo not drawn) [F1097, cis-(3-Amino-2,4-difluorophenyl)-5-(3-(3-bromo-2,5-difluorophenyl)-2,2-dichlorocyclopropane-1-carboxamido)-2-chlorobenzamide]	50 to 100%	50 to 100%
O=C(Nc1ccc(F)cc1NC(=O)C(Cl)(Cl)Cl)c1cc(NC(=O)C2C(c3ccc(Cl)c(Cl)c3)C2(Cl)Cl)ccc1Cl (stereo not shown) [F1126]	50 to 100%	50 to 100%
Nc1c(F)cccc1NC(=O)c1cc(NC(=O)[C@H]2[C@H](c3ccc(F)c(Cl)c3)C2(Cl)Cl)ccc1Cl [F1133, N-(2-Amino-3-fluorophenyl)-2-chloro-5-((1R,3R)-2,2-dichloro-3-(3-chloro-4-fluorophenyl)cyclopropane-1-carboxamido)benzamide]	50 to 100%	50 to 100%
Nc1cc(F)c(F)cc1NC(=O)c1cc(NC(=O)[C@H]2[C@H](c3ccc(F)c(Cl)c3)C2(Cl)Cl)ccc1Cl [F1134, N-(2-Amino-4,5-difluorophenyl)-2-chloro-5-((1R,3R)-2,2-dichloro-3-(3-chloro-4-fluorophenyl)cyclopropane-1-carboxamido)benzamide]	50 to 100%	50 to 100%
Cc1cc(F)c(NC(=O)c2cc(NC(=O)[C@H]3[C@H](c4ccc(F)c(Cl)c4)C3(Cl)Cl)ccc2Cl)cc1N [F1135, N-(5-Amino-2-fluoro-4-methylphenyl)-2-chloro-5-((1R,3R)-2,2-dichloro-3-(3-chloro-4-fluorophenyl)cyclopropane-1-carboxamido)benzamide]	50 to 100%	50 to 100%
CC(=O)OCCNc1ccc(NC(=O)c2cc(NC(=O)[C@H]3[C@H](c4ccc(F)c(C(F)(F)F)c4)C3(Cl)Cl)ccc2Cl)c(C)c1 [F1144, 2-((4-(2-Chloro-5-((1R,3R)-2,2-dichloro-3-(4-fluoro-3-(trifluoromethyl)phenyl)cyclopropane-1-carboxamido)benzamido)-3-methylphenyl)amino)ethyl acetate]	50 to 100%	50 to 100%
Cc1cc(NCCO)ccc1NC(=O)c1cc(NC(=O)[C@H]2[C@H](c3ccc(F)c(C(F)(F)F)c3)C2(Cl)Cl)ccc1Cl [F1145, 2-Chloro-5-((1R,3R)-2,2-dichloro-3-(4-fluoro-3-(trifluoromethyl)phenyl)cyclopropane-1-carboxamido)-N-(4-((2-hydroxyethyl)amino)-2-methylphenyl)benzamide]	50 to 100%	50 to 100%
O=C(Nc1c(F)ccc(NC(=O)c2cc(NC(=O)[C@H]3[C@H](c4ccc(F)c(C(F)(F)F)c4)C3(Cl)Cl)ccc2Cl)c1F)c1ccccc1 [F1179, N-(3-Benzamido-2,4-difluorophenyl)-2-chloro-5-((1R,3R)-2,2-dichloro-3-(4-fluoro-3-(trifluoromethyl)phenyl)cyclopropane-1-carboxamido)benzamide]	50 to 100%	50 to 100%
O=C(Nc1c(F)ccc(NC(=O)c2cc(NC(=O)[C@H]3[C@H](c4ccc(F)c(C(F)(F)F)c4)C3(Cl)Cl)ccc2Cl)c1F)c1ccc(F)cc1 [F1204, 2-chloro-5-((1R,3R)-2,2-dichloro-3-(4-fluoro-3-(trifluoromethyl)phenyl)cyclopropane-1-carboxamido)-N-(2,4-difluoro-3-(4-fluorobenzamido)phenyl)benzamide]	50 to 100%	50 to 100%
COc1ccc(C(=O)Nc2c(F)ccc(NC(=O)c3cc(NC(=O)[C@H]4[C@H](c5ccc(F)c(C(F)(F)F)c5)C4(Cl)Cl)ccc3Cl)c2F)cc1 [F1205, 2-Chloro-5-((1R,3R)-2,2-dichloro-3-(4-fluoro-3-(trifluoromethyl)phenyl)cyclopropane-1-carboxamido)-N-(2,4-difluoro-3-(4-methoxybenzamido)phenyl)benzamide]	50 to 100%	50 to 100%
O=C(Nc1c(F)ccc(NC(=O)c2cc(NC(=O)[C@H]3[C@H](c4ccc(F)c(C(F)(F)F)c4)C3(Cl)Cl)ccc2Cl)c1F)c1cccnc1 [F1206, N-(3-(2-Chloro-5-((1R,3R)-2,2-dichloro-3-(4-fluoro-3-(trifluoromethyl)phenyl)cyclopropane-1-carboxamido)benzamido)-2,6-difluorophenyl)nicotinamide]	50 to 100%	50 to 100%
CC(=O)Nc1c(F)ccc(NC(=O)c2cc(NC(=O)[C@H]3[C@H](c4ccc(F)c(C(F)(F)F)c4)C3(Cl)Cl)ccc2Cl)c1F [F1231, N-(3-Acetamido-2,4-difluorophenyl)-2-chloro-5-((1R,3R)-2,2-dichloro-3-(4-fluoro-3-(trifluoromethyl)phenyl)cyclopropane-1-carboxamido)benzamide]	50 to 100%	50 to 100%
O=C(Nc1c(F)ccc(NC(=O)c2cc(NC(=O)[C@H]3[C@H](c4ccc(F)c(C(F)(F)F)c4)C3(Cl)Cl)ccc2Cl)c1F)c1ccc(F)nc1 [F1258, N-(3-(2-Chloro-5-((1R,3R)-2,2-dichloro-3-(4-fluoro-3-(trifluoromethyl)phenyl)cyclopropane-1-carboxamido)benzamido)-2,6-difluorophenyl)-6-fluoronicotinamide]	50 to 100%	50 to 100%
